US20100216661A1, “Diagnostic Assay” (priority 2007, published 2010)

How the values were obtained:
[1] = system: polyclonal anti-RhD preparation (Human Anti-D Ig); experiment: Biopanning of phage-peptide libraries with polyclonal anti-RhD; assay type: binding; details: biopanning of phage-peptide libraries with polyclonal anti-RhD preparation
From the text: (§1) Three different phage libraries from New England Biolabs. (Ph.D. 7 and Ph.D. 12 displaying linear 7- and 12-mer peptides, respectively and Ph.D. C7C displaying 7-mer peptides constrained by a disulphide bridge at their termini) and a linear 15mer library (kindly provided by Prof. George P. Smith, University of Missouri) were used in biopanning experiments with 10 different monoclonal antibodies and a polyclonal preparation (Table 1).
(§2) For each target antibody/library combination, a separate well of a 96-well Immulon 4 flat-bottomed ELISA plate (Thermo Labsystems) was coated with 5 μg of antibody in 150 μl ELISA coating buffer (15 mM Na2CO3, 35 mM NaHCO3, pH9.6). Plates were sealed and incubated at 4° C. overnight. Unbound antibody was discarded and 350 μl of blocking buffer (0.1M NaHCO3/3% skimmed milk powder) was added to each well. Plates were sealed and incubated for 1 hour at 4° C. The blocking buffer was removed and the wells were washed six times with 300 μl TBS/0.1% Tween 20. Approximately 2×10^11 plaque forming units (pfu) in 100 μl TBS/0.1% Tween 20 were added to each well and the plates were incubated at room temperature for 1 hour. Wells were washed ten times with 300 μl TBS/0.1% Tween 20. Bound phage were eluted by incubation with 100 μl of 0.2M glycine-HCl/BSA, pH2.2 (1 mg/ml) for 10 minutes, then neutralised with 15 μl of 1M Tris-HCL (pH9.1). An aliquot of the Round 1 eluate was removed and titred. The remainder of the eluted phage were amplified by infection of E. coli ER2538 cells for 4.5 hours at 37° C. The cultures were centrifuged for 10 minutes at 10,000 rpm at 4° C. The supernatants were recovered, ⅙ volume PEG/NaCl (20% polyethylene glycol 8000; 2.5M NaCl) added, then incubated overnight at 4° C. The PEG-precipitated phage were centrifuged at 10,000 rpm for 15 minutes at 4° C. The supernatant was removed and the phage pellet resuspended in 200 μl TBS. Two further rounds of panning were undertaken and approximately 2×10^11 pfu of the Round 2 or Round 3 amplified eluates were used as input phage. Round 3 eluates were titrated but not amplified. Individual plaques were amplified and subjected to PCR amplification, prior to DNA sequence analysis. The specificity of peptide-antibody binding was subsequently determined using both phage ELISA and SPOTs techniques.

[2] = system: anti-RhD monoclonal antibody T10 (LHM76/55); experiment: Biopanning of phage-peptide libraries with anti-RhD T10; assay type: binding, Human; details: biopanning of phage-peptide libraries with anti-RhD monoclonal T10
From the text: as §1, §2

[3] = system: anti-RhD monoclonal antibody T22 (LHM 169/80); experiment: Biopanning of phage-peptide libraries with anti-RhD T22; assay type: binding, Human
From the text: as §1, §2

[4] = system: anti-RhD monoclonal antibody T27 (LHM169/81); experiment: Biopanning of phage-peptide libraries with anti-RhD T27; assay type: binding, Human
From the text: as §1, §2

| Substance | Panning Antibody (antibody that selected the phage-peptide in biopanning) [1] | Panning Antibody (antibody that selected the phage-peptide in biopanning) [2] | also measured |
| --- | --- | --- | --- |
| RhD 89 (FHWRYPLPLPGQ) | RhD | – | – |
| RhD 72 (WHPPQPS) | – | RhD T10 | – |
| RhD 95 (IHWWVKSPPPGS) | RhD | – | – |
| RhD 17 (WGIWWNN) | – | – | Panning Antibody (antibody that selected the phage-peptide in biopanning) [3]: RhD T22 |
| RhD 69 (VHWRWWDQRVPM) | – | RhD T10 | – |
| RhD 27 (WHWYPRFSPPSH) | – | – | Panning Antibody (antibody that selected the phage-peptide in biopanning) [3]: RhD T22 |
| RhD 44 (HWKHPWGAWDTL) | – | RhD T10 | – |
| RhD 96 (SHWWTSILATPS) | RhD | – | – |
| RhD 67 (VWAVSLPWYRYP) | – | RhD T10 | – |
| RhD 15 (LHAWHRNTIGWWIGF) | – | – | Panning Antibody (antibody that selected the phage-peptide in biopanning) [4]: RhD T27 |
| RhD 104 (WPHQVHKHIYRQ) | RhD | – | – |
| RhD 3 (NLLPAKL) | – | – | Panning Antibody (antibody that selected the phage-peptide in biopanning) [4]: RhD T27 |
| RhD 100 (ATWSHHLSSAGL) | RhD | – | – |
| RhD 68 (LDTYWYREHFRR) | – | RhD T10 | – |
| RhD 86 (FHSNWPSAYTAR) | RhD | – | – |
| RhD 76 (LPWFQLP) | – | RhD T10 | – |
| RhD 16 (WGLWFSN) | – | – | Panning Antibody (antibody that selected the phage-peptide in biopanning) [3]: RhD T22 |
| RhD 101 (FHRHYYPWALIQ) | RhD | – | – |
| RhD 59 (WHWRLYSANTP) | – | RhD T10 | – |
| RhD 23 (DSRWLLP) | – | – | Panning Antibody (antibody that selected the phage-peptide in biopanning) [3]: RhD T22 |
| RhD 26 (HSSWWLALAKPT) | – | – | Panning Antibody (antibody that selected the phage-peptide in biopanning) [3]: RhD T22 |
| RhD 50 (WHWTFYTPLEST) | – | RhD T10 | – |
| RhD 55 (FHRWPTWPLPSP) | – | RhD T10 | – |

| Substance | Panning Antibody (antibody that selected the phage-peptide in biopanning) [1] | Panning Antibody (antibody that selected the phage-peptide in biopanning) [2] | also measured |
| --- | --- | --- | --- |
| RhD 94 (FHWRLPYPLPSS) | RhD | – | – |
| RhD 32 (WPCHPICLSPRG) | – | – | Panning Antibody (antibody that selected the phage-peptide in biopanning) [3]: RhD T22 |
| RhD 90 (SPTSFRQVFGFY) | RhD | – | – |
| RhD 85 (FHSVYPWREAEG) | RhD | – | – |
| RhD 25 (FHWSWYTPSRPS) | – | – | Panning Antibody (antibody that selected the phage-peptide in biopanning) [3]: RhD T22 |
| RhD 87 (FHSNWPSLIRAR) | RhD | – | – |
| RhD 58 (FHQRLWWPTHTP) | – | RhD T10 | – |
| RhD 41 (WYTKAPY) | – | RhD T10 | – |
| RhD 79 (LPWYRH) | – | RhD T10 | – |
| RhD 20 (WGLWWHT) | – | – | Panning Antibody (antibody that selected the phage-peptide in biopanning) [3]: RhD T22 |
| RhD 88 (AGYQIGMPNPLL) | RhD | – | – |
| RhD 71 (VPWFRAP) | – | RhD T10 | – |
| RhD 54 (QHKTSITGHLEP) | – | RhD T10 | – |
| RhD 39 (AFLGHSHWFPSVASR) | – | – | Panning Antibody (antibody that selected the phage-peptide in biopanning) [3]: RhD T22 |
| RhD 21 (WGLWWTG) | – | – | Panning Antibody (antibody that selected the phage-peptide in biopanning) [3]: RhD T22 |
| RhD 65 (RPHLLDWELNPV) | – | RhD T10 | – |
| RhD 92 (LHWWPTYGNNGM) | RhD | – | – |
| RhD 61 (SIWDLPLQYRGFGTS) | – | RhD T10 | – |
| RhD 81 (FHSTWPWREAEG) | RhD | – | – |
| RhD 57 (TLVYQPPWYRIA) | – | RhD T10 | – |
| RhD 46 (WHKNWWPPSTPN) | – | RhD T10 | – |
| RhD 34 (WNCFPICHASGL) | – | – | Panning Antibody (antibody that selected the phage-peptide in biopanning) [3]: RhD T22 |
| RhD 102 (HSLKHTQMSYSS) | RhD | – | – |
